Test results published in patent US20130012443A1, “METHODS OF TREATMENT OF CENTRAL NERVOUS SYSTEM HEMORRHAGE USING PROTOPORPHYRIN IX-FE COMPOUNDS” (priority 2011, published 2013).
Entries after “also recorded” stand apart in the source; their conditions may differ.

How the values were obtained:
[1] = test system: mouse model of intracerebral hemorrhage (ICH); experiment: Evan's blue leakage (blood-brain barrier disruption) after ICH induced by collagenase injection; format: in vivo, mice; conditions: 26 mg/kg 1 or 3 hours after collagenase and again 24 h later, v. vehicle
heme oxygenase-1 (HO-1) = experiment: HO-1 expression in mouse brain by immunoblotting; format: in vivo; conditions: 26 mg/kg i.p. for 1 or 2 days, v. saline; for HO-1 expression in cortex (CTX) / HO-1 expression in striatum (STR): 24 hours after last dose, FIG. 4
Procedure: Mice received 26 mg/kg hemin i.p for 1 or 2 days, or an equal volume of saline. Striatal HO-1 expression was assessed 24 hours after the last hemin dose. Actin levels provide a gel-loading control. *P<0.05 v. expression in saline-treated controls, n=4/conditon.
Mice received 26 mg/kg hemin or heme arginate i.p for 1 or 2 days, or an equal volume of saline. HO-1 expression was assessed 24 hours after last dose. Actin serves as a control.
The response elicited by protoporphyrin IX-Fe compounds was investigated by administering 26 mg/kg hemin, or an equal volume of saline for 1 or 2 days via intraperitoneal injection. Expression of heme oxygenase-1 (HO-1) in striatal cells was assessed 24 hours after the last hemin dose. Four mice were used for each experimental group. Actin was used as a gel-loading control. HO-1 expression was quantified by immunoblotting as previously described (Neuropharmacology 2011 60:423-431); band density was analyzed using Kodak 1D software (Kodak, Rochester, N.Y.) (FIG. 3).
The effect of protoporphyrin IX-Fe compounds on HO-1 expression in nervous tissue was further investigated using heme arginate and examining the response in the cortex in addition to the striatum. Mice received 26 mg/kg hemin or heme arginate for 1 or 2 days, or an equal volume of saline. All treatments were administered intraperitoneally. HO-1 expression was quantified by immunoblotting as previously described (Neuropharmacology 2011 60:423-431).

HO-1 = conditions: low doses; cited from earlier work
[2] = test system: mouse model of intracerebral hemorrhage (ICH); experiment: Evan's blue leakage (blood-brain barrier disruption) after ICH induced by striatal autologous blood injection; format: in vivo, mice
Procedure: Mice were treated with 26 mg/kg hemin i.p. 1 hour later, as a one-time dose, or repeated in 24 hours; controls received vehicle i.p. only. Evan's blue leakage into the striatal parenchyma, a marker of blood-brain barrier disruption, was quantified at 3 days. […] Sham mice received anesthesia and needle trauma only. *P<0.05, **P<0.01, hemin treated v. vehicle-treated controls.
The effect of protoporphyrin IX-Fe compounds on subsequent exposure of nervous tissue to toxic doses of hemin was investigated. A mouse model of intracerebral hemorrhage (ICH) was used. ICH was induced in mice (6-7/condition, 9-10 weeks old) by injecting 25 μl autologous blood (FIG. 1A) into the right striatum. One hour after hemorrhage induction, mice were treated with (a) hemin at 26 mg/kg as a one-time dose, (b) hemin at 26 mg/kg at 1 hour after induction and then repeated at 25 hours after induction, or (c) sterile saline solution only. […] Mice were then treated with vehicle or hemin 1 hour later, with repeated dose 24 hours later. All treatments were administered via intraperitoneal injection. Three days after hemorrhage induction, brains were harvested after Evans blue injection, and slices were examined for Evan's blue fluorescence. […] Evan's blue leakage into the striatal parenchyma was quantified as a marker of blood-brain barrier disruption (FIGS. 1A-1B).

[3] = bound to albumin; cited from earlier work
striatal cells = experiment: Striatal cell viability by MTT assay after ICH; format: in vivo, mice; conditions: v. vehicle
Procedure: Intracerebral hemorrhage was modeled in 2-3 month old mice (5-6/condition) by striatal injection of autologous blood (25 μl) or collagenase (0.014 units), followed 1 or 3 hours later by 4 mg/kg hemin i.p. (repeated 24 h later) or vehicle. Five days after ICH, striatal cell viability was quantified by MTT assay. *P<0.05, **P<0.01, hemin treated v. vehicle-treated controls.
Whether protoporphyrin IX-Fe compounds could reduce hemorrhage-induced cell death in nervous tissues was investigated using the same mouse model of ICH. Intracerebral hemorrhage was modeled in 2-3 month old mice (5-6/condition) by striatal injection of autologous blood (25 μl) or collagenase (0.014 units), followed 1 or 3 hours later by 4 mg/kg hemin i.p. (repeated 24 h later) or vehicle. Five days after ICH, striatal cell viability was quantified by MTT assay (Chen et al., J Neurosurg 2011 114:1159-67) after striatal cell dissociation (FIG. 2). ICH was also modeled by striatal injection of […] autologous blood, followed by hemin (26 mg/kg) or vehicle treatment at 3 and 27 hours after ICH.

Substance | Evan's blue leakage into the striatal parenchyma, a marker of blood-brain barrier disruption [1] | HO-1 expression in cortex (CTX) (heme oxygenase-1 (HO-1)) | HO-1 expression in striatum (STR) (heme oxygenase-1 (HO-1)) | Striatal HO-1 expression (heme oxygenase-1 (HO-1); 24 hours after the last dose, FIG. 3) | HO-1 expression in cultured cells (HO-1) | Evan's blue leakage into the striatal parenchyma, a marker of blood-brain barrier disruption ([2]; striatal autologous blood injection, 26 mg/kg i.p. 1 hour later, one-time dose or repeated in 24 hours, quantified at 3 days, v. vehicle, 26 mg/kg) | Evan's blue fluorescence in brain slices ([2]; three days after hemorrhage induction, DsRed filter, data not shown) | blood vessel inflammation and damage (phlebitis) [3] | stability [3] | striatal cell viability (MTT assay) (striatal cells; autologous blood (25 μl) or collagenase (0.014 units), 4 mg/kg i.p. 1 or 3 hours later, repeated 24 h later, five days after ICH, 4 mg/kg) | MTT staining intensity / tissue viability (striatal cells; autologous blood, 26 mg/kg at 3 and 27 hours after ICH, data not shown)
chloride salt of protoporphyrin IX-Fe^3+ [hemin] | decreases blood-brain barrier disruption | increases HO-1 expression | increases HO-1 expression | increased expression of HO-1; also recorded: increases expression of the protective enzyme heme oxygenase-1 (HO-1) | could induce HO-1 expression | attenuated blood-brain barrier disruption following simulated hemorrhage in a dose-dependent manner; also recorded: decreases blood-brain barrier disruption | Reduced fluorescence | less blood vessel inflammation and damage (phlebitis) | more stable | increased striatal cell viability; also recorded: increases peri-hematomal cell viability | increased tissue viability
heme arginate |  | increases HO-1 expression | increases HO-1 expression |  |  |  |  |  |  |  | 
